Test results taken from ChEMBL document CHEMBL5620413, “Novel pterostilbene derivatives ameliorate heart failure by reducing oxidative stress and inflammation through regulating Nrf2/NF-κB signaling pathway” (Eur J Med Chem, 2023).
The source made the active and inactive calls.

Assays:
Mus musculus [1] = test: Protection against cardiac dysfunction C57BL/6J mouse model assessed as increase in DOX-reduced heart size at 7 mg/kg, ip administered daily for 4 weeks; format: functional, organism-based
Mus musculus [2] = test: Protection against cardiac dysfunction C57BL/6J mouse model assessed as increase in DOX-reduced LVFS at 7 mg/kg, ip administered daily for 4 weeks by echocardiography; format: functional, organism-based
H9c2 [3] = test: Antiinflammatory activity against rat H9c2 cells assessed as decrease in DOX-induced IL-1beta expression upto 10 uM preincubated for 1 hr followed by DOX treatment for 12 hrs by Western blot analysis; format: functional, cell-based; settings: time 13.0 hrs
H9c2 [4] = test: Antiinflammatory activity against rat H9c2 cells assessed as decrease in LPS-induced NF-kappaB phosphorylation upto 10 uM preincubated for 1 hr followed by LPS treatment for 24 hrs by Western blot analysis; format: functional, cell-based; settings: time 25.0 hrs
RAW264.7 [5] = test: Inhibition of ROS generation in mouse RAW264.7 cells assessed as increase in DOX-reduced SOD expression upto 10 uM preincubated for 1 hr followed by DOX treatment for 12 hrs by Western blot analysis; format: functional, cell-based; settings: time 13.0 hrs
Mus musculus [6] = test: Protection against cardiac dysfunction C57BL/6J mouse model assessed as increase in DOX-reduced heart rate at 7 mg/kg, ip administered daily for 4 weeks by echocardiography; format: functional, organism-based
H9c2 [7] = test: Inhibition of ROS generation in rat H9c2 cells assessed as increase in DOX-reduced SOD expression upto 10 uM preincubated for 1 hr followed by DOX treatment for 12 hrs by Western blot analysis; format: functional, cell-based; settings: time 13.0 hrs
Mus musculus [8] = test: Protection against cardiac dysfunction C57BL/6J mouse model assessed as decrease in DOX-induced serum LDH level at 7 mg/kg, ip administered daily for 4 weeks; format: functional, organism-based
Mus musculus [9] = test: Protection against cardiac dysfunction C57BL/6J mouse model assessed as increase in DOX-reduced cardiac Nrf2 expression at 7 mg/kg, ip administered daily for 4 weeks by Western blot analysis; format: functional, organism-based
RAW264.7 [10] = test: Antiinflammatory activity against mouse RAW264.7 cells assessed as decrease in LPS-induced TNF-alpha expression upto 10 uM preincubated for 1 hr followed by LPS treatment for 24 hrs by Western blot analysis; format: functional, cell-based; settings: time 25.0 hrs
RAW264.7 [11] = test: Antiinflammatory activity in mouse RAW264.7 cells assessed as decrease in LPS-induced NO production at 10 uM preincubated for 1 hr followed by LPS treatment for 24 hrs by Griess reagent based assay; format: functional, cell-based; settings: time 25.0 hrs
Mus musculus [12] = test: Protection against cardiac dysfunction C57BL/6J mouse model assessed as increase in DOX-reduced ratio of heart weight to body weight at 7 mg/kg, ip administered daily for 4 weeks; format: functional, organism-based
H9c2 [13] = test: Inhibition of ROS generation in rat H9c2 cells assessed as increase in DOX-reduced Nrf2 expression upto 10 uM preincubated for 1 hr followed by DOX treatment for 12 hrs by Western blot analysis; format: functional, cell-based; settings: time 13.0 hrs
Mus musculus [14] = test: Protection against cardiac dysfunction C57BL/6J mouse model assessed as decrease in DOX-induced myocardial cell injury at 7 mg/kg, ip administered daily for 4 weeks by H and E staining based analysis; format: functional, organism-based
RAW264.7 [15] = test: Antiinflammatory activity in mouse RAW264.7 cells assessed as decrease in LPS-induced COX2 expression preincubated for 1 hr followed by LPS treatment for 24 hrs by Western blot analysis; format: functional, cell-based; settings: dose <= 10.0 µM, time 25.0 hrs
RAW264.7 [16] = test: Antiinflammatory activity against mouse RAW264.7 cells assessed as decrease in LPS-induced NF-kappaB phosphorylation upto 10 uM preincubated for 1 hr followed by LPS treatment for 24 hrs by Western blot analysis; format: functional, cell-based; settings: time 25.0 hrs
Mus musculus [17] = test: Protection against cardiac dysfunction C57BL/6J mouse model assessed as decrease in DOX-induced serum HBDH level at 7 mg/kg, ip administered daily for 4 weeks; format: functional, organism-based
Mus musculus [18] = test: Protection against cardiac dysfunction C57BL/6J mouse model assessed as decrease in DOX-induced TGF-beta1 expression at 7 mg/kg, ip administered daily for 4 weeks by Western blot analysis; format: functional, organism-based
Mus musculus [19] = test: Protection against cardiac dysfunction C57BL/6J mouse model assessed as decrease in DOX-induced serum CK level at 7 mg/kg, ip administered daily for 4 weeks; format: functional, organism-based
RAW264.7 [20] = test: Antiinflammatory activity against mouse RAW264.7 cells assessed as decrease in DOX-induced NF-kappaB phosphorylation upto 10 uM preincubated for 1 hr followed by DOX treatment for 12 hrs by Western blot analysis; format: functional, cell-based; settings: time 13.0 hrs
H9c2 [21] = test: Antiinflammatory activity against rat H9c2 cells assessed as decrease in DOX-induced NF-kappaB phosphorylation upto 10 uM preincubated for 1 hr followed by DOX treatment for 12 hrs by Western blot analysis; format: functional, cell-based; settings: time 13.0 hrs
RAW264.7 [22] = test: Inhibition of ROS generation in mouse RAW264.7 cells assessed as increase in DOX-reduced Nrf2 expression upto 10 uM preincubated for 1 hr followed by DOX treatment for 12 hrs by Western blot analysis; format: functional, cell-based; settings: time 13.0 hrs
RAW264.7 [23] = test: Inhibition of ROS generation in mouse RAW264.7 cells preincubated for 1 hr followed by LPS treatment for 24 hrs by DCFH-DA dye based analysis; format: functional, cell-based; settings: dose <= 10.0 µM, time 25.0 hrs
RAW264.7 [24] = test: Antiinflammatory activity in mouse RAW264.7 cells assessed as LPS-induced NO production preincubated for 1 hr followed by LPS treatment for 24 hrs by Griess reagent based assay; format: functional; settings: time 25 hrs
Mus musculus [25] = test: Protection against cardiac dysfunction C57BL/6J mouse model assessed as increase in DOX-reduced cardiac NQO1 expression at 7 mg/kg, ip administered daily for 4 weeks by Western blot analysis; format: functional, organism-based
Mus musculus [26] = test: Protection against cardiac dysfunction C57BL/6J mouse model assessed as increase in DOX-reduced cardiac GPX1 expression at 7 mg/kg, ip administered daily for 4 weeks by Western blot analysis; format: functional, organism-based
Mus musculus [27] = test: Protection against cardiac dysfunction C57BL/6J mouse model assessed as decrease in DOX-induced serum ALP level at 7 mg/kg, ip administered daily for 4 weeks; format: functional, organism-based
Mus musculus [28] = test: Protection against cardiac dysfunction C57BL/6J mouse model assessed as increase in DOX-reduced LVEF at 7 mg/kg, ip administered daily for 4 weeks by echocardiography; format: functional, organism-based
RAW264.7 [29] = test: Antiinflammatory activity in mouse RAW264.7 cells assessed as decrease in LPS-induced NO production preincubated for 1 hr followed by LPS treatment for 24 hrs by Griess reagent based assay; format: functional, cell-based; settings: dose <= 10.0 µM, time 25.0 hrs
H9c2 [30] = test: Inhibition of ROS generation in rat H9c2 cells assessed as increase in LPS-reduced Nrf2 expression upto 10 uM preincubated for 1 hr followed by LPS treatment for 24 hrs by Western blot analysis; format: functional, cell-based; settings: time 25.0 hrs
Mus musculus [31] = test: Antiinflammatory activity in cardiac dysfunction C57BL/6J mouse model assessed as decrease in DOX-induced TNF-alpha expression at 7 mg/kg, ip administered daily for 4 weeks by Western blot analysis; format: functional, organism-based
H9c2 [32] = test: Inhibition of ROS generation in rat H9c2 cells assessed as increase in DOX-reduced GPX1 expression upto 10 uM preincubated for 1 hr followed by DOX treatment for 12 hrs by Western blot analysis; format: functional, cell-based; settings: time 13.0 hrs
Mus musculus [33] = test: Antiinflammatory activity in cardiac dysfunction C57BL/6J mouse model assessed as decrease in DOX-induced IL-1beta expression at 7 mg/kg, ip administered daily for 4 weeks by Western blot analysis; format: functional, organism-based
Mus musculus [34] = test: Protection against cardiac dysfunction C57BL/6J mouse model assessed as decrease in DOX-induced alpha-SMA expression at 7 mg/kg, ip administered daily for 4 weeks by Western blot analysis; format: functional, organism-based

CCCCOc1ccc(/C=C/c2cc(OC)cc(OC)c2C2CC(C)=NN2C(C)=O)cc1 (centres undefined)
0.198 µM: Activity (RAW264.7 [24])
active: Activity (Mus musculus [1]) | Activity (Mus musculus [2]) | Activity (H9c2 [3]) | Activity (H9c2 [4]) | inhibition (RAW264.7 [5]) | Activity (Mus musculus [6]) | inhibition (H9c2 [7]) | Activity (Mus musculus [8]) | Activity (Mus musculus [9]) | Activity (RAW264.7 [10]) | Activity (RAW264.7 [11]) | Activity (Mus musculus [12]) | inhibition (H9c2 [13]) | Activity (Mus musculus [14]) | Activity (RAW264.7 [15]) Dose-Dependent Effect | Activity (RAW264.7 [16]) | Activity (Mus musculus [17]) | Activity (Mus musculus [18]) | Activity (Mus musculus [19]) | Activity (RAW264.7 [20]) | Activity (H9c2 [21]) | inhibition (RAW264.7 [22]) | inhibition (RAW264.7 [23]) Dose-Dependent Effect | Activity (Mus musculus [25]) | Activity (Mus musculus [26]) | Activity (Mus musculus [27]) | Activity (Mus musculus [28]) | Activity (RAW264.7 [29]) Dose-Dependent Effect | inhibition (H9c2 [30]) | Activity (Mus musculus [31]) | inhibition (H9c2 [32]) | Activity (Mus musculus [33]) | Activity (Mus musculus [34])
